From patent US20240376100A1 (Redona Therapeutics, Inc., priority 2021, published 2024)
Structures can show the parent of a compound that is named as a salt.

Molecular target: PAPD5 enzyme (Homo sapiens, UniProt Q8NDF8)
Assay: PAPD5 assay (AMP incorporation onto 3'-terminus of RNA substrate, fluorescence quench)
Assay type: biochemical
Conditions: PAPD5 protein 0.3 nM, ATP 50 μM, 30 minutes preincubation, room temperature; read-out: Potency PAPD5 IC50
Procedure, shortened: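 Enzyme at 0.3 nM with 50 μM ATP, pH 7.3 HEPES buffer, preincubated with compound 30 minutes at room temperature; 5 nM 5′-fluorescein RNA substrate and 20 nM TAMRA quench probe then added. Initial rates from kinetic fluorescein decrease over ~90 minutes; IC50 by four-parameter fit.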

Sequence of PAPD5 enzyme (Q8NDF8 whole entry): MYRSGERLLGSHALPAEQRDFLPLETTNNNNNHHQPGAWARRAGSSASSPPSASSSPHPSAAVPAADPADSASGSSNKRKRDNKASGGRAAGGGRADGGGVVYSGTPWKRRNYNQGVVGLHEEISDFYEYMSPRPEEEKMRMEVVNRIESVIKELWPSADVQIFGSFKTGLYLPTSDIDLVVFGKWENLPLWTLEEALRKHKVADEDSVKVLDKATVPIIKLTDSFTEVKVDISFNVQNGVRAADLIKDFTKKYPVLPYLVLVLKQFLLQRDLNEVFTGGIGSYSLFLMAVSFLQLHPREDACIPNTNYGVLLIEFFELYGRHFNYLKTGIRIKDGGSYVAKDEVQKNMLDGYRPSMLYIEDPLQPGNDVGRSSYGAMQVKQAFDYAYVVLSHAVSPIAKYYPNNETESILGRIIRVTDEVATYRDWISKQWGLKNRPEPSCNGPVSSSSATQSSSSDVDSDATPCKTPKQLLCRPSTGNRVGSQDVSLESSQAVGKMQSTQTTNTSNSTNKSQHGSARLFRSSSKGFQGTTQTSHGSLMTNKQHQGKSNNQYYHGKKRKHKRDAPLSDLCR

IC50, ≤ 1 µM:
COCCN1CCC(Cn2cc(C(=O)O)c(=O)c3cc(Cl)c(N4Cc5cccnc5C4)cc32)CC1 [Example 125, 6-chloro-7-(5,7-dihydro-6H-pyrrolo[3,4-b]pyridin-6-yl)-1-((1-(2-methoxyethyl)piperidin-4-yl)methyl)-4-oxo-1,4-dihydroquinoline-3-carboxylic acid hydrochloride]
CC(=O)N1CCC(n2cc(C(=O)O)c(=O)c3cc(Cl)c(N4Cc5cccnc5C4)cc32)CC1 [Example 126, 1-(1-acetylpiperidin-4-yl)-6-chloro-7-(5,7-dihydro-6H-pyrrolo[3,4-b]pyridin-6-yl)-4-oxo-1,4-dihydroquinoline-3-carboxylic acid]
CN(C)C(=O)N1CCC(Cn2cc(C(=O)O)c(=O)c3cc(Cl)c(N4Cc5cccnc5C4)cc32)CC1 [Example 129, 6-chloro-7-(5,7-dihydro-6H-pyrrolo[3,4-b]pyridin-6-yl)-1-((1-(dimethylcarbamoyl)piperidin-4-yl)methyl)-4-oxo-1,4-dihydroquinoline-3-carboxylic acid]
CN(C)C(=O)N1CCC(n2cc(C(=O)O)c(=O)c3cc(Cl)c(N4Cc5cccnc5C4)cc32)CC1 [Example 130, 6-chloro-7-(5,7-dihydro-6H-pyrrolo[3,4-b]pyridin-6-yl)-1-(1-(dimethylcarbamoyl)piperidin-4-yl)-4-oxo-1,4-dihydroquinoline-3-carboxylic acid]
Cn1cnc(Cn2cc(C(=O)O)c(=O)c3cc(Cl)c(N4Cc5cccnc5C4)cc32)c1 [Example 131, 6-chloro-7-(5,7-dihydro-6H-pyrrolo[3,4-b]pyridin-6-yl)-1-((1-methyl-1H-imidazol-4-yl)methyl)-4-oxo-1,4-dihydroquinoline-3-carboxylic acid]
COCCN(C)c1cc2c(cc1Cl)c(=O)c(C(=O)O)cn2-c1cnc(N)cc1C [Example 132, 1-(6-amino-4-methylpyridin-3-yl)-6-chloro-7-((2-methoxyethyl)(methyl)amino)-4-oxo-1,4-dihydroquinoline-3-carboxylic acid]
COCCCN(C)c1cc2c(cc1Cl)c(=O)c(C(=O)O)cn2-c1cnc(N)cc1C [Example 133, 1-(6-amino-4-methylpyridin-3-yl)-6-chloro-7-((3-methoxypropyl)(methyl)amino)-4-oxo-1,4-dihydroquinoline-3-carboxylic acid]
COc1cc2c(=O)c(C(=O)O)cn(-c3cnc(NC(=O)OC(C)(C)C)cc3C)c2cc1N1Cc2cccnc2C1 [Example 135, 1-(6-((tert-butoxycarbonyl)amino)-4-methylpyridin-3-yl)-7-(5,7-dihydro-6H-pyrrolo[3,4-b]pyridin-6-yl)-6-methoxy-4-oxo-1,4-dihydroquinoline-3-carboxylic acid]
Cc1cc(NC(=O)OC(C)(C)C)ncc1-n1cc(C(=O)O)c(=O)c2ccc(N3Cc4cccnc4C3)cc21 [Example 136, 1-(6-((tert-butoxycarbonyl)amino)-4-methylpyridin-3-yl)-7-(5,7-dihydro-6H-pyrrolo[3,4-b]pyridin-6-yl)-4-oxo-1,4-dihydroquinoline-3-carboxylic acid]
CCN(CCOC)c1cc2c(cc1Cl)c(=O)c(C(=O)O)cn2-c1cnc(N)cc1C [Example 138, 1-(6-amino-4-methylpyridin-3-yl)-6-chloro-7-(ethyl(2-methoxyethyl)amino)-4-oxo-1,4-dihydroquinoline-3-carboxylic acid]
COc1cc2c(=O)c(C(=O)O)cn(-c3cnc(N)cc3C)c2cc1N1Cc2cccnc2C1 [Example 139, 1-(6-amino-4-methylpyridin-3-yl)-7-(5,7-dihydro-6H-pyrrolo[3,4-b]pyridin-6-yl)-6-methoxy-4-oxo-1,4-dihydroquinoline-3-carboxylic acid]
Cc1cc(N)ncc1-n1cc(C(=O)O)c(=O)c2ccc(N3Cc4cccnc4C3)cc21 [Example 140, 1-(6-amino-4-methylpyridin-3-yl)-7-(5,7-dihydro-6H-pyrrolo[3,4-b]pyridin-6-yl)-4-oxo-1,4-dihydroquinoline-3-carboxylic acid]
Cc1cc2c(=O)c(C(=O)O)cn(-c3cnc(N)cc3C)c2cc1N1Cc2cccnc2C1 [Example 141]
Cc1cc2c(=O)c(C(=O)O)cn(-c3cnc(NC(=O)OC(C)(C)C)cc3C)c2cc1N1Cc2cccnc2C1 [Example 142, 1-(6-((tert-butoxycarbonyl)amino)-4-methylpyridin-3-yl)-7-(5,7-dihydro-6H-pyrrolo[3,4-b]pyridin-6-yl)-6-methyl-4-oxo-1,4-dihydroquinoline-3-carboxylic acid]
COCCN(C)c1cc(C)c(-n2cc(C(=O)O)c(=O)c3cc(Cl)c(N4Cc5cccnc5C4)nc32)cn1 [Example 143, 6-chloro-7-(5,7-dihydro-6H-pyrrolo[3,4-b]pyridin-6-yl)-1-(6-((2-methoxyethyl)(methyl)amino)-4-methylpyridin-3-yl)-4-oxo-1,4-dihydro-1,8-naphthyridine-3-carboxylic acid]
CCOc1cc2c(=O)c(C(=O)O)cn(-c3cnc(N)cc3C)c2cc1N1Cc2cccnc2C1 [Example 144, 1-(6-amino-4-methylpyridin-3-yl)-7-(5,7-dihydro-6H-pyrrolo[3,4-b]pyridin-6-yl)-6-ethoxy-4-oxo-1,4-dihydroquinoline-3-carboxylic acid]
Cc1cc(N(C)C)ncc1-n1cc(C(=O)O)c(=O)c2cc(Cl)c(N3Cc4cccnc4C3)nc21 [Example 146, 6-chloro-7-(5,7-dihydro-6H-pyrrolo[3,4-b]pyridin-6-yl)-1-(6-(dimethylamino)-4-methylpyridin-3-yl)-4-oxo-1,4-dihydro-1,8-naphthyridine-3-carboxylic acid]
Cc1cc(N)ncc1-n1cc(C(=O)O)c(=O)c2cc(Cl)c(-n3ccc(N)n3)nc21 [Example 147, 7-(3-amino-1H-pyrazol-1-yl)-1-(6-amino-4-methylpyridin-3-yl)-6-chloro-4-oxo-1,4-dihydro-1,8-naphthyridine-3-carboxylic acid]
CNc1ccn(-c2nc3c(cc2Cl)c(=O)c(C(=O)O)cn3-c2cnc(N)cc2C)n1 [Example 148, 1-(6-amino-4-methylpyridin-3-yl)-6-chloro-7-(3-(methylamino)-1H-pyrazol-1-yl)-4-oxo-1,4-dihydro-1,8-naphthyridine-3-carboxylic acid]
CCOc1cc2c(=O)c(C(=O)O)cn(-c3cnc(NC(=O)OC(C)(C)C)cc3C)c2cc1N1Cc2cccnc2C1 [Example 149, 1-(6-((tert-butoxycarbonyl)amino)-4-methylpyridin-3-yl)-7-(5,7-dihydro-6H-pyrrolo[3,4-b]pyridin-6-yl)-6-ethoxy-4-oxo-1,4-dihydroquinoline-3-carboxylic acid]
Cc1cc(NC(=O)OC(C)(C)C)ncc1-n1cc(C(=O)O)c(=O)c2cnc(N3Cc4cccnc4C3)cc21 [Example 150, 1-(6-((tert-butoxycarbonyl)amino)-4-methylpyridin-3-yl)-7-(5,7-dihydro-6H-pyrrolo[3,4-b]pyridin-6-yl)-4-oxo-1,4-dihydro-1,6-naphthyridine-3-carboxylic acid]
COCCNc1cc(C)c(-n2cc(C(=O)O)c(=O)c3cc(Cl)c(N4Cc5cccnc5C4)nc32)cn1 [Example 151, 6-chloro-7-(5,7-dihydro-6H-pyrrolo[3,4-b]pyridin-6-yl)-1-(6-((2-methoxyethyl)amino)-4-methylpyridin-3-yl)-4-oxo-1,4-dihydro-1,8-naphthyridine-3-carboxylic acid]
Cc1cc(N)ncc1-n1cc(C(=O)O)c(=O)c2cc(Cl)c(-n3ccnc3)nc21 [Example 152, 1-(6-amino-4-methylpyridin-3-yl)-6-chloro-7-(1H-imidazol-1-yl)-4-oxo-1,4-dihydro-1,8-naphthyridine-3-carboxylic acid]
Cc1cc(N)ncc1-n1cc(C(=O)O)c(=O)c2cc(Cl)c(-n3cccn3)nc21 [Example 153, 1-(6-amino-4-methylpyridin-3-yl)-6-chloro-4-oxo-7-(1H-pyrazol-1-yl)-1,4-dihydro-1,8-naphthyridine-3-carboxylic acid]
Cc1cc(N)ncc1-n1cc(C(=O)O)c(=O)c2ccc(N3Cc4cccnc4C3)c(F)c21 [Example 154, 1-(6-amino-4-methylpyridin-3-yl)-7-5,7-dihydro-6H-pyrrolo[3,4-b]pyridin-6-yl)-8-fluoro-4-oxo-1,4-dihydroquinoline-3-carboxylic acid hydrochloride]
Cc1cc(N)ncc1-n1cc(C(=O)O)c(=O)c2ccc(N3Cc4ccccc4C3)c(F)c21 [Example 155, 1-(6-amino-4-methylpyridin-3-yl)-8-fluoro-7-(isoindolin-2-yl)-4-oxo-1,4-dihydroquinoline-3-carboxylic acid]
Cc1cc(NC(=O)OC(C)(C)C)ncc1-n1cc(C(=O)O)c(=O)c2ccc(N3Cc4cccnc4C3)c(F)c21 [Example 156, 1-(6-((tert-butoxycarbonyl)amino)-4-methylpyridin-3-yl)-7-(5,7-dihydro-6H-pyrrolo[3,4-b]pyridin-6-yl)-8-fluoro-4-oxo-1,4-dihydroquinoline-3-carboxylic acid]
Cc1cc(N)ncc1-n1cc(C(=O)O)c(=O)c2cc(Cl)c(N3Cc4ccccc4C3)nc21 [Example 157, 1-(6-amino-4-methylpyridin-3-yl)-6-chloro-7-(isoindolin-2-yl)-4-oxo-1,4-dihydro-1,8-naphthyridine-3-carboxylic acid]
Cc1cc(N)ncc1-n1cc(C(=O)O)c(=O)c2cc(Cl)c(N3Cc4cccc(F)c4C3)nc21 [Example 158, 1-(6-amino-4-methylpyridin-3-yl)-6-chloro-7-(4-fluoroisoindolin-2-yl)-4-oxo-1,4-dihydro-1,8-naphthyridine-3-carboxylic acid]
